Test results from PubChem BioAssay AID248 (DTP/NCI, 2004).
Values joined by “and” are separate entries in the source; they are usually repeats but may differ in a detail not shown here. Equal entries are not always repeated. Inconclusive results and toxic doses are left out. Cut-off read from the data, not from the text of the source: active = T/C of 150% or more; inactive = T/C below 125%.

Test system: L1210 leukemia ip in BDF1 mice, survival T/C
Assay: NCI In Vivo Anticancer Drug Screen. Data for tumor model L1210 Leukemia (intraperitoneal) in B6D2F1 (BDF1) mice
Conditions: higher = longer survival
Method in brief: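 Read-out is survival time, reported as the treated-group measurement over the vehicle-control measurement.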

[1] = endpoint: mean survival time, dose: 50.0 mg/kg/injection, schedule: Q01DX001 (ip), vehicle: carboxymethylcellulose (CMC)
[2] = endpoint: mean survival time, dose: 50.0 mg/kg/injection, schedule: Q01DX001 (ip), vehicle: saline
[3] = endpoint: mean survival time, dose: 100.0 mg/kg/injection, schedule: Q01DX001 (ip), vehicle: carboxymethylcellulose (CMC)
[4] = endpoint: mean survival time, dose: 100.0 mg/kg/injection, schedule: Q01DX001 (ip), vehicle: saline
[5] = endpoint: mean survival time, dose: 200.0 mg/kg/injection, schedule: Q01DX001 (ip), vehicle: carboxymethylcellulose (CMC)
[6] = endpoint: mean survival time, dose: 200.0 mg/kg/injection, schedule: Q01DX001 (ip), vehicle: saline
[7] = endpoint: mean survival time, dose: 400.0 mg/kg/injection, schedule: Q01DX001 (ip), vehicle: carboxymethylcellulose (CMC)
[8] = endpoint: mean survival time, dose: 400.0 mg/kg/injection, schedule: Q01DX001 (ip), vehicle: saline
[9] = endpoint: mean survival time, dose: 50.0 mg/kg/injection, schedule: Q01DX009 (ip), vehicle: Klucel (hydroxypropylcellulose) (HPC)
[10] = endpoint: mean survival time, dose: 100.0 mg/kg/injection, schedule: Q01DX001 (ip), vehicle: Klucel (hydroxypropylcellulose) (HPC)
[11] = endpoint: mean survival time, dose: 200.0 mg/kg/injection, schedule: Q01DX001 (ip), vehicle: Klucel (hydroxypropylcellulose) (HPC)
[12] = endpoint: mean survival time, dose: 400.0 mg/kg/injection, schedule: Q01DX001 (ip), vehicle: Klucel (hydroxypropylcellulose) (HPC)
[13] = endpoint: mean survival time, dose: 100.0 mg/kg/injection, schedule: Q01DX009 (ip), vehicle: Klucel (hydroxypropylcellulose) (HPC)
[14] = endpoint: mean survival time, dose: 100.0 mg/kg/injection, schedule: Q04DX003 (ip), vehicle: Klucel (hydroxypropylcellulose) (HPC)
[15] = endpoint: mean survival time, dose: 200.0 mg/kg/injection, schedule: Q01DX009 (ip), vehicle: Klucel (hydroxypropylcellulose) (HPC)
[16] = endpoint: mean survival time, dose: 200.0 mg/kg/injection, schedule: Q04DX003 (ip), vehicle: Klucel (hydroxypropylcellulose) (HPC)
[17] = endpoint: mean survival time, dose: 400.0 mg/kg/injection, schedule: Q04DX003 (ip), vehicle: Klucel (hydroxypropylcellulose) (HPC)
[18] = endpoint: mean survival time, dose: 100.0 mg/kg/injection, schedule: Q01DX001 (ip), vehicle: saline with Tween-80
[19] = endpoint: mean survival time, dose: 200.0 mg/kg/injection, schedule: Q01DX001 (ip), vehicle: saline with Tween-80
[20] = endpoint: mean survival time, dose: 400.0 mg/kg/injection, schedule: Q01DX001 (ip), vehicle: saline with Tween-80
[21] = endpoint: mean survival time, dose: 50.0 mg/kg/injection, schedule: Q04DX002 (ip), vehicle: saline
[22] = endpoint: mean survival time, dose: 100.0 mg/kg/injection, schedule: Q04DX002 (ip), vehicle: saline
[23] = endpoint: mean survival time, dose: 50.0 mg/kg/injection, schedule: Q04DX003 (ip), vehicle: Klucel (hydroxypropylcellulose) (HPC)

Measured: T/C

Nc1ncnc2c1ncn2C1OC(CO)C(O)C1N (centres undefined)
inactive: [1] 100 % of control | [2] 103 % of control and 108 % of control | [3] 110 % of control | [4] 98 % of control and 103 % of control | [5] 100 % of control | [6] 90 % of control and 108 % of control | [7] 98 % of control | [8] 100 % of control and 116 % of control

COc1cccc(/C=N\NC(=O)CCCC(=O)N/N=C/c2cccc(OC)c2)c1
inactive: [2] 87 % of control | [4] 90 % of control | [8] 103 % of control

CC1C2Cc3ccc(O)cc3C1(C)CCN2C/C=C\Cl (centres undefined)
inactive: endpoint: mean survival time, dose: 100.0 mg/kg/injection, schedule: Q01DX009 (ip), vehicle: saline with Tween-80 94 % of control | endpoint: mean survival time, dose: 200.0 mg/kg/injection, schedule: Q01DX009 (ip), vehicle: saline with Tween-80 95 % of control | endpoint: mean survival time, dose: 400.0 mg/kg/injection, schedule: Q01DX009 (ip), vehicle: saline with Tween-80 95 % of control

Cc1cccc(N2C(=O)C3C(C2=O)C2(Cl)C(Cl)=C(Cl)C3(Cl)C2(Cl)Cl)c1C (centres undefined)
inactive: endpoint: mean survival time, dose: 3.0 mg/kg/injection, schedule: Q01DX009 (ip), vehicle: Klucel (hydroxypropylcellulose) (HPC) 96 % of control | endpoint: mean survival time, dose: 6.0 mg/kg/injection, schedule: Q01DX009 (ip), vehicle: Klucel (hydroxypropylcellulose) (HPC) 102 % of control | endpoint: mean survival time, dose: 12.5 mg/kg/injection, schedule: Q01DX009 (ip), vehicle: Klucel (hydroxypropylcellulose) (HPC) 111 % of control | endpoint: mean survival time, dose: 25.0 mg/kg/injection, schedule: Q01DX009 (ip), vehicle: Klucel (hydroxypropylcellulose) (HPC) 107 % of control | [9] 103 % of control

Cc1cccc(CNC(=O)NCCCl)c1C
inactive: [10] 100 % of control | [11] 97 % of control | [12] 95 % of control

CC(=O)Nc1ccc(Cl)cc1C(=O)O
inactive: [13] 97 % of control | [14] 97 % of control | [15] 90 % of control | [16] 94 % of control | endpoint: mean survival time, dose: 400.0 mg/kg/injection, schedule: Q01DX009 (ip), vehicle: Klucel (hydroxypropylcellulose) (HPC) 93 % of control | [17] 102 % of control

Cl
inactive: endpoint: mean survival time, dose: 50.0 mg/kg/injection, schedule: Q01DX009 (oral), vehicle: water 97 % of control | endpoint: median survival time, dose: 15.0 mg/kg/injection, schedule: Q01DX009 (ip), vehicle: water 87 % of control | endpoint: median survival time, dose: 30.0 mg/kg/injection, schedule: Q01DX009 (ip), vehicle: water 100 % of control | endpoint: median survival time, dose: 60.0 mg/kg/injection, schedule: Q01DX009 (ip), vehicle: water 112 % of control | endpoint: median survival time, dose: 90.0 mg/kg/injection, schedule: Q01DX009 (ip), vehicle: water 112 % of control

CC(=N\NC(N)=S)/C(=N/NC(N)=S)c1ccccc1
inactive: endpoint: mean survival time, dose: 15.0 mg/kg/injection, schedule: Q01DX Z (ip), vehicle: carboxymethylcellulose (CMC) 107 % of control | endpoint: mean survival time, dose: 30.0 mg/kg/injection, schedule: Q01DX Z (ip), vehicle: carboxymethylcellulose (CMC) 97 % of control | endpoint: mean survival time, dose: 60.0 mg/kg/injection, schedule: Q01DX Z (ip), vehicle: carboxymethylcellulose (CMC) 95 % of control and 90 % of control | endpoint: mean survival time, dose: 120.0 mg/kg/injection, schedule: Q01DX Z (ip), vehicle: carboxymethylcellulose (CMC) 93 % of control and 91 % of control | endpoint: mean survival time, dose: 120.0 mg/kg/injection, schedule: Q01DX Z (oral), vehicle: carboxymethylcellulose (CMC) 110 % of control | endpoint: mean survival time, dose: 240.0 mg/kg/injection, schedule: Q01DX Z (oral), vehicle: carboxymethylcellulose (CMC) 100 % of control | endpoint: mean survival time, dose: 480.0 mg/kg/injection, schedule: Q01DX Z (ip), vehicle: carboxymethylcellulose (CMC) 88 % of control | endpoint: mean survival time, dose: 480.0 mg/kg/injection, schedule: Q01DX Z (oral), vehicle: carboxymethylcellulose (CMC) 115 % of control | endpoint: mean survival time, dose: 960.0 mg/kg/injection, schedule: Q01DX Z (oral), vehicle: carboxymethylcellulose (CMC) 104 % of control

O=[N+]([O-])c1ccc(OCc2ccc(COc3ccc(S(=O)(=O)F)cc3)cc2)c(Cl)c1
inactive: [18] 90 % of control | [19] 102 % of control | [20] 96 % of control

CCOC(=O)C1CC2(OCCO2)c2c(OC)ccc(Cl)c2C1C (centres undefined)
inactive: endpoint: mean survival time, dose: 75.0 mg/kg/injection, schedule: Q01DX001 (ip), vehicle: saline 102 % of control | endpoint: mean survival time, dose: 150.0 mg/kg/injection, schedule: Q01DX001 (ip), vehicle: saline 96 % of control | endpoint: mean survival time, dose: 300.0 mg/kg/injection, schedule: Q01DX001 (ip), vehicle: saline 94 % of control

CC1=C(CCCO)/C(=N/Nc2ccc([N+](=O)[O-])cc2[N+](=O)[O-])CCC1
inactive: endpoint: mean survival time, dose: 25.0 mg/kg/injection, schedule: Q04DX002 (ip), vehicle: saline with Tween-80 97 % of control | [18] 105 % of control | [19] 87 % of control | [20] 92 % of control

NCC(=O)NC(CSSCC(N)C(=O)O)C(=O)O (centres undefined)
inactive: endpoint: mean survival time, dose: 25.0 mg/kg/injection, schedule: Q04DX002 (ip), vehicle: saline 103 % of control | [21] 103 % of control | [22] 100 % of control

O=C(OC1CC2CC1C1CCCCC21)c1ccc([N+](=O)[O-])cc1 (centres undefined)
inactive: [1] 94 % of control | [3] 105 % of control | [5] 100 % of control | [7] 96 % of control

CC(=O)Nc1ccc(OC(=O)Nc2c(C)cccc2C)cc1
inactive: [14] 100 % of control | [16] 91 % of control | [17] 91 % of control

CN(Cc1ccccc1O)C1CC2CCC1(C)C2(C)C (centres undefined)
inactive: [21] 97 % of control | [22] 101 % of control

CC1(C)CSCC(C)(C)/C(=N/O)C1=O
inactive: endpoint: mean survival time, dose: 50.0 mg/kg/injection, schedule: Q04DX002 (ip), vehicle: saline with Tween-80 101 % of control | endpoint: mean survival time, dose: 100.0 mg/kg/injection, schedule: Q04DX002 (ip), vehicle: saline with Tween-80 112 % of control | endpoint: mean survival time, dose: 200.0 mg/kg/injection, schedule: Q04DX002 (ip), vehicle: saline with Tween-80 101 % of control

CCC(C)Nc1ccccc1 (centres undefined)
inactive: [9] 102 % of control and 104 % of control | [23] 101 % of control | [13] 102 % of control and 103 % of control | [14] 101 % of control | [15] 94 % of control and 87 % of control | [16] 97 % of control

COC(=O)C(CSC(=O)c1ccccc1)NC(=O)c1ccccc1 (centres undefined)
inactive: endpoint: mean survival time, dose: 25.0 mg/kg/injection, schedule: Q04DX003 (ip), vehicle: Klucel (hydroxypropylcellulose) (HPC) 100 % of control | [23] 110 % of control | [10] 97 % of control | [14] 100 % of control | [11] 100 % of control | [12] 101 % of control

N#CCC(=O)[O][Sn]([c]1ccccc1)([c]1ccccc1)[c]1ccccc1
inactive: endpoint: mean survival time, dose: 1.56 mg/kg/injection, schedule: Q01DX009 (ip), vehicle: saline with Tween-80 99 % of control | endpoint: mean survival time, dose: 3.12 mg/kg/injection, schedule: Q01DX009 (ip), vehicle: saline with Tween-80 92 % of control | endpoint: mean survival time, dose: 6.25 mg/kg/injection, schedule: Q01DX009 (ip), vehicle: saline with Tween-80 89 % of control

Cc1ccc(Nc2nc(N)nc(N)c2C=O)cc1
inactive: endpoint: mean survival time, dose: 50.0 mg/kg/injection, schedule: Q01DX001 (ip), vehicle: alcohol 89 % of control | endpoint: mean survival time, dose: 100.0 mg/kg/injection, schedule: Q01DX001 (ip), vehicle: alcohol 86 % of control | endpoint: mean survival time, dose: 200.0 mg/kg/injection, schedule: Q01DX001 (ip), vehicle: alcohol 102 % of control | endpoint: mean survival time, dose: 400.0 mg/kg/injection, schedule: Q01DX001 (ip), vehicle: alcohol 86 % of control

CCCCOC(=O)Oc1ccc(C(=O)Oc2ccc(OCC)cc2)cc1
inactive: [13] 111 % of control | [14] 104 % of control | [15] 106 % of control | [16] 109 % of control | [17] 98 % of control

CN1C(=O)C(Br)C(C)(Br)c2ccccc21 (centres undefined)
inactive: [4] 93 % of control | [6] 101 % of control | [8] 92 % of control

Cn1c(=O)c2[nH]c(Br)nc2n(C)c1=O
inactive: [13] 90 % of control | [14] 98 % of control | [15] 93 % of control | [16] 111 % of control | [17] 106 % of control
